Assay results reported in patent US9139577B2, “Sulfoximine substituted quinazolines for pharmaceutical compositions” (Boehringer Ingelheim International GmbH, priority 2013, dated 2015).

Tests used:
[1] = molecular target: MNK2a (Homo sapiens (Human), UniProt Q9HBH9); test: MNK2a in vitro kinase assay (Assay 2), ADP-Glo; assay type: biochemical; conditions: read-out: MNK2 IC50
[2] = molecular target: MNK1 (Homo sapiens (Human), UniProt Q9BUB5); test: MNK1 in vitro kinase assay (Assay 3), Z'-LYTE; assay type: biochemical; conditions: for inhibition at 1 µM: compound concentration of 1 μM, read-out: MNK1 % INH
MNK1, sequence (Q9BUB5 other isoform, or with tags, fused parts or gaps): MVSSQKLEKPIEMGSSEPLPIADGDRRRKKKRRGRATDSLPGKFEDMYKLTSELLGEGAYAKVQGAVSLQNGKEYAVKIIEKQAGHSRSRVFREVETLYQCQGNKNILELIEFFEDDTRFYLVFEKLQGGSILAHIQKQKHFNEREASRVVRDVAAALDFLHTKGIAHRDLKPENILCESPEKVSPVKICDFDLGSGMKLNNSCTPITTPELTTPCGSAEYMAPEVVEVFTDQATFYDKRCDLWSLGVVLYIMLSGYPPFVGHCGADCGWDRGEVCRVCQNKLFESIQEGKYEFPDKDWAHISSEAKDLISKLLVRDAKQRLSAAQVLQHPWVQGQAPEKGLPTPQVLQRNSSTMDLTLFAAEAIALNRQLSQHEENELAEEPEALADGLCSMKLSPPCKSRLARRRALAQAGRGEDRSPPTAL
Text: C. MNK1 In vitro Kinase Assay (Assay 3)
MNK1 Data can be obtained from the MNK1 Z′-LYTE® assay. The MNK1 Z′-LYTE® screening protocol and assay conditions are also described on www.invitrogen.com.
The assay is described as follows:
The Z′-LYTE® biochemical assay employs a fluorescence-based, coupled-enzyme format and is based on the differential sensitivity of phosphorylated and non-phosphorylated peptides to proteolytic cleavage. The peptide substrate is labeled with two fluorophores—one at each end—that make up a FRET pair.
In the primary reaction, the kinase transfers the gamma-phosphate of ATP to a single tyrosine, serine or threonine residue in a synthetic FRET-peptide. In the secondary reaction, a site-specific protease recognizes and cleaves non-phosphorylated FRET-peptides. Phosphorylation of FRET-peptides suppresses cleavage by the Development Reagent. Cleavage disrupts FRET between the donor (i.e., coumarin) and acceptor (i.e., fluorescein) fluorophores on the FRET-peptide, whereas uncleaved, phosphorylated FRET-peptides maintain FRET. A ratiometric method, which calculates the ratio (the Emission Ratio) of donor emission to acceptor emission after excitation of the donor fluorophore at 400 nm, is used to quantitate reaction progress, as shown in the equation below.
ASSAY SETUP: The inhibition of kinase activity of MNK1a was assessed using pre-activated GST-MNK1a. The 2×MKNK1 (MNK1) mixture is prepared in 50 mM HEPES pH 7.5, 0.01% BRIJ-35, 10 mM MgCl2, 4 mM MnCl2, 1 mM EGTA, 2 mM DTT.
The Test Compounds are screened in 1% DMSO (final) in the well.
All Peptide/Kinase Mixtures are diluted to a 2× working concentration in the MNK1 Kinase Buffer.
All ATP Solutions are diluted to a 4× working concentration in Kinase Buffer (50 mM HEPES pH 7.5, 0.01% BRIJ-35, 10 mM MgCl2, 1 mM EGTA).
Development Reagent Solution:
The Development Reagent is diluted in Development Buffer
1. 2.5 μL—4× Test Compound
2. 5 μL—2× Peptide/Kinase Mixture
5. 60-minute Kinase Reaction incubation at room temperature
6. 5 μl—Development Reagent Solution
8. 60-minute Development Reaction incubation at room temperature
9. Read on fluorescence plate reader and analyze the data
The following equations are used for each set of data points: […]
Correction for Background Fluorescence: FlSample-FlTCFl Ctl
% Phosphorylation (% Phos): 1−((Emission Ratio×F100%)−C100%)/((C0%−C100%)+[Emission Ratio×(F100%−F0%)])*100%
% Inhibition: 1−(% PhosSample/% Phos0% Inhibition Ctl)*100
Fl=Fluorescence Intensity
C100%=Average Coumarin emission signal of the 100% Phos. Control
C0%=Average Coumarin emission signal of the 0% Phos. Control
F100%=Average Fluorescein emission signal of the 100% Phos. Control
F0%=Average Fluorescein emission signal of the 0% Phos. Control
SelectScreen® Kinase Profiling Service uses XLfit from IDBS.

MNK2a, sequence (Q9HBH9 whole entry): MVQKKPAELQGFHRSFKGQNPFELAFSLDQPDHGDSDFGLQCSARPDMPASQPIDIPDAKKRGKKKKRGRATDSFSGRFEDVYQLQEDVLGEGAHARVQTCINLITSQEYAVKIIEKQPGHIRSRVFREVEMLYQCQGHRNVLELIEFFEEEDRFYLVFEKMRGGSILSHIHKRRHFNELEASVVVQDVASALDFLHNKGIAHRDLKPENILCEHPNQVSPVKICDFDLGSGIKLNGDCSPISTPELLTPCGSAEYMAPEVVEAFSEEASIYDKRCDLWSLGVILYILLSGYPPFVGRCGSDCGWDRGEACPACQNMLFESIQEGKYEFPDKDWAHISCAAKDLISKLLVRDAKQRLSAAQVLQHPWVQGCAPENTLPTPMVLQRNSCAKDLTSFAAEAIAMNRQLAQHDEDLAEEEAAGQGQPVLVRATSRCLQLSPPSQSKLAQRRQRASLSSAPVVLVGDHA

In the case of `Cc1cc(N=S(C)(C)=O)cc2ncnc(Nc3ccc(F)cc3O[C@H](C)C(=O)N(C)CC(C)C)c12` [Example 4.013], the IC50 [1] is reported as 5 nM and the inhibition at 1 µM [2] is reported as 88%.

`Cc1cc(N=S(C)(C)=O)cc2ncnc(Nc3ccc(F)cc3O[C@H](C)CNS(C)(=O)=O)c12` [Example 5.003] showed an IC50 [1] of 83 nM and an inhibition at 1 µM [2] of 38%.

`C[C@@H](Oc1cc(F)ccc1Nc1ncnc2cc(N=S3(=O)CCC3)cc(F)c12)C(=O)NCC(F)(F)F` [Example 4.100] was tested, and the IC50 [1] was 2 nM, the IC50 [2] was 14 nM and the inhibition at 1 µM [2] was 97%.

`O=S1(=Nc2cc(C(F)(F)F)c3c(Nc4ccc(F)cc4OC(CF)CF)ncnc3c2)CCOCC1` [Example 1.021] gave an IC50 [1] of 1 nM and an inhibition at 1 µM [2] of 52%.

`Cc1cc(N=S2(=O)CCCC2)cc2ncnc(Nc3ccc(F)cc3O[C@H](C)C(F)(F)F)c12` [Example 2.048] showed an IC50 [1] of 2 nM and an IC50 [2] of 40 nM.

`Cc1cc(N=S(C)(C)=O)cc2ncnc(Nc3ccc(F)cc3O[C@H](C)C(=O)NC(C(F)(F)F)C(F)(F)F)c12` [Example 3.054] gave an IC50 [1] of 1 nM, an IC50 [2] of 51 nM and an inhibition at 1 µM [2] of 58%.

Work on `Cc1cc(N=S2(=O)CCCC2)cc2ncnc(Nc3ccc(F)cc3O[C@H](C)C(=O)N(C)CCc3ccccc3)c12` [Example 4.063] yielded an IC50 [1] of 10 nM and an inhibition at 1 µM [2] of 56%.

Work on `Cc1cc(N=S(C)(C)=O)cc2ncnc(Nc3ccc(F)cc3O[C@H](C)C(=O)NCC(C)O)c12` (stereo partly shown) [Example 4.020] yielded an IC50 [1] of 4 nM and an inhibition at 1 µM [2] of 98%.

`Cc1cc(N=S2(=O)CCCC2)cc2ncnc(Nc3ccc(F)cc3O[C@H](C)C(N)=O)c12` [Example 4.047] was tested, and the IC50 [1] was 5 nM and the inhibition at 1 µM [2] was 86%.

`Cc1cc(N=S2(=O)CCCC2)cc2ncnc(Nc3ccc(F)cc3OC(CF)CF)c12` [Example 1.011] gave an IC50 [1] of 2 nM and an IC50 [2] of 34 nM.

`Cc1cc(N=S(C)(C)=O)cc2ncnc(Nc3ccc(F)cc3O[C@H](C)C(=O)N=S(C)(C)=O)c12` [Example 4.022] showed an IC50 [1] of 10 nM and an inhibition at 1 µM [2] of 85%.

Compound `Cc1cc(N=S(C)(C)=O)cc2ncnc(Nc3ccc(F)cc3OCC(=O)N(C)C)c12` [Example 3.026] has an IC50 [1] of 4 nM and an inhibition at 1 µM [2] of 53%.

Compound `Cc1cc(N=S(C)(C)=O)cc2ncnc(Nc3ccc(F)cc3O[C@H](C)C(=O)NC3CCOCC3)c12` [Example 4.019] has an IC50 [1] of 6 nM and an inhibition at 1 µM [2] of 92%.

Compound `Cc1cc(N=S2(=O)CCCC2)cc2ncnc(Nc3ccc(F)cc3O[C@H](C)C(=O)NC3CCC3)c12` [Example 4.015] has an IC50 [1] of 2 nM and an inhibition at 1 µM [2] of 102%.

`Cc1cc(N=S(C)(C)=O)cc2ncnc(Nc3ccc(F)cc3OC(C)CC3CCOCC3)c12` (stereo not shown) [Example 3.019] gave an IC50 [1] of 24 nM and an inhibition at 1 µM [2] of 48%.

Work on `CS(C)(=O)=Nc1cc(C2CC2)c2c(Nc3ccc(F)cc3OC(CF)CF)ncnc2c1` [Example 1.022] yielded an IC50 [1] of 3 nM and an inhibition at 1 µM [2] of 79%.

In the case of `Cc1cc(N=S(C)(C)=O)cc2ncnc(Nc3ccc(F)cc3O[C@H](C)CNC(=O)C(F)(F)F)c12` [Example 5.010], the IC50 [1] is reported as 28 nM and the inhibition at 1 µM [2] is reported as 62%.

Work on `Cc1cc(N=S(C)(C)=O)cc2ncnc(Nc3ccc(F)cc3O[C@H](C)C(=O)NC3CCC3)c12` [Example 4.023] yielded an IC50 [1] of 5 nM and an inhibition at 1 µM [2] of 99%.

Work on `CCS(C)(=O)=Nc1cc(Cl)c2c(Nc3cccnc3O[C@H](C)c3cc(C)no3)ncnc2c1` (stereo partly shown) [Example 1.005] yielded an IC50 [1] of 2 nM and an inhibition at 1 µM [2] of 98%.

`Cc1cc(N=S2(=O)CCCC2)cc2ncnc(Nc3ccc(F)cc3O[C@H](C)C(=O)N(C)Cc3ccccc3)c12` [Example 4.017] showed an IC50 [1] of 9 nM and an inhibition at 1 µM [2] of 73%.

`CCC(=O)NC[C@@H](C)Oc1cc(F)ccc1Nc1ncnc2cc(N=S(C)(C)=O)cc(C)c12` [Example 5.012] showed an IC50 [1] of 56 nM and an inhibition at 1 µM [2] of 61%.

With `CCOC(=O)[C@@H](C)Oc1cc(F)ccc1Nc1ncnc2cc(N=S3(=O)CCCC3)cc(C)c12` [Example 3.012] the IC50 [1] was 23 nM and the inhibition at 1 µM [2] was 100%.

In the case of `Cc1cc(C(C)Oc2cc(C(N)=O)ccc2Nc2ncnc3cc(N=S(C)(C)=O)cc(C)c23)on1` (stereo not shown) [Example 1.012], the IC50 [1] is reported as 6 nM and the inhibition at 1 µM [2] is reported as 96%.

Work on `Cc1cc(N=S2(=O)CCCC2)cc2ncnc(Nc3ccc(F)cc3O[C@H](C)C(=O)NCC3CCCO3)c12` (stereo partly shown) [Example 4.001] yielded an IC50 [1] of 5 nM and an inhibition at 1 µM [2] of 97%.

With `CCOC(=O)[C@H](C)Oc1cc(F)ccc1Nc1ncnc2cc(N=S(C)(C)=O)cc(C)c12` [Example 3.032] the IC50 [1] was 16 nM and the inhibition at 1 µM [2] was 26%.

For `CCNC(=O)[C@@H](C)Oc1cc(F)ccc1Nc1ncnc2cc(N=S(C)(C)=O)cc(C)c12` [Example 4.034], the IC50 [1] was 3 nM and the IC50 [2] was 51 nM.

`Cc1cc(N=S(C)(C)=O)cc2ncnc(Nc3ccc(F)cc3OCC3(C#N)CCC3)c12` [Example 3.014] showed an IC50 [1] of 8 nM and an inhibition at 1 µM [2] of 78%.

`Cc1cc(N=S(C)(C)=O)cc2ncnc(Nc3ccc(F)cc3OCCC(F)(F)F)c12` [Example 3.031] showed an IC50 [1] of 5 nM and an IC50 [2] of 75 nM.

`Cc1cc(N=S(C)(C)=O)cc2ncnc(Nc3ccc(F)cc3OC(C)COC3CCOC3)c12` (stereo not shown) [Example 3.028] showed an IC50 [1] of 6 nM and an inhibition at 1 µM [2] of 92%.

`Cc1cc(N=S2(=O)CCCC2)cc2ncnc(Nc3ccc(F)cc3O[C@H](C)C(=O)NCC(C)(C)O)c12` [Example 4.058] gave an IC50 [1] of 3 nM and an IC50 [2] of 75 nM.

`Cc1cc(N=S(C)(C)=O)cc2ncnc(Nc3ccc(F)cc3OC(C)Cn3ccnc3C)c12` (stereo not shown) [Example 3.015] gave an IC50 [1] of 3 nM and an inhibition at 1 µM [2] of 45%.

Compound `COCC(C)NC(=O)[C@@H](C)Oc1cc(F)ccc1Nc1ncnc2cc(N=S3(=O)CCCC3)cc(C)c12` (stereo partly shown) [Example 4.040] has an IC50 [1] of 2 nM and an inhibition at 1 µM [2] of 97%.

For `Cc1cc(N=S2(=O)CCCC2)cc2ncnc(Nc3ccc(F)cc3O[C@H](C)C(=O)NC(C)C)c12` [Example 4.042], the IC50 [1] was 1 nM and the inhibition at 1 µM [2] was 97%.

`C#CC(C)Oc1cc(F)ccc1Nc1ncnc2cc(N=S(C)(C)=O)cc(C)c12` (stereo not shown) [Example 3.016] was tested, and the IC50 [1] was 2 nM and the inhibition at 1 µM [2] was 90%.

Compound `CC(Oc1cc(F)ccc1Nc1ncnc2cc(N=S(C)(C)=O)cc(F)c12)C(F)(F)F` (stereo not shown) [Example 1.020] has an IC50 [1] of 7 nM and an inhibition at 1 µM [2] of 80%.

`C[C@H](NC(=O)[C@@H](C)Oc1cc(F)ccc1Nc1ncnc2cc(N=S3(=O)CCC3)cc(F)c12)C(F)(F)F` [Example 4.136] was tested, and the IC50 [1] was 1 nM, the IC50 [2] was 29 nM and the inhibition at 1 µM [2] was 93%.

Work on `Cc1cc(N=S2(=O)CCCC2)cc2ncnc(Nc3ccc(F)cc3O[C@H](C)C(=O)NCC(C)O)c12` (stereo partly shown) [Example 4.008] yielded an IC50 [1] of 2 nM and an inhibition at 1 µM [2] of 97%.

In the case of `Cc1cc(N=S(C)(C)=O)cc2ncnc(Nc3ccc(F)cc3O[C@H](C)C(=O)N[C@@H]3CCC[C@H]3O)c12` [Example 4.065], the IC50 [1] is reported as 9 nM and the inhibition at 1 µM [2] is reported as 93%.

`Cc1cc(N=S(C)(C)=O)cc2ncnc(Nc3ccc(F)cc3O[C@H](C)C(=O)NCC(C)(C)O)c12` [Example 4.069] gave an IC50 [1] of 6 nM and an inhibition at 1 µM [2] of 93%.

`Cc1cc(N=S(C)(C)=O)cc2ncnc(Nc3ccc(F)cc3O[C@H](C)C(=O)N(C)Cc3ccccc3)c12` [Example 4.012] showed an IC50 [1] of 34 nM and an inhibition at 1 µM [2] of 56%.

For `Cc1cc(N=S(C)(C)=O)cc2ncnc(Nc3ccc(F)cc3O[C@H](C)C(=O)N(C)CCc3ccccc3)c12` [Example 4.037], the inhibition at 1 µM [2] was 45%.

For `COC1CCN(C(=O)[C@@H](C)Oc2cc(F)ccc2Nc2ncnc3cc(N=S(C)(C)=O)cc(C)c23)CC1` [Example 4.073], the inhibition at 1 µM [2] was 70%.
